Laboratory results from PubChem BioAssay AID1259407 (Chemical Carcinogenesis Research Information System (CCRIS), 2018).
Calls of active or inactive are those of the source. The rule behind the calls is not given here.

System: CCRIS mutagenicity, Ames/micronucleus/aberration tests
Assay: CCRIS mutagenicity studies
[1] = Test System: AMES SALMONELLA TYPHIMURIUM, Strain/Indicator: TA97, Metabolic Activation: NONE, Method: STANDARD PLATE
[2] = Test System: AMES SALMONELLA TYPHIMURIUM, Strain/Indicator: TA98, Metabolic Activation: NONE, Method: STANDARD PLATE
[3] = Test System: AMES SALMONELLA TYPHIMURIUM, Strain/Indicator: TA100, Metabolic Activation: NONE, Method: STANDARD PLATE
[4] = Test System: AMES SALMONELLA TYPHIMURIUM, Strain/Indicator: TA100, Metabolic Activation: RAT, LIVER, S-9, AROCLOR 1254, Method: STANDARD PLATE
[5] = Test System: AMES SALMONELLA TYPHIMURIUM, Strain/Indicator: TA1538, Metabolic Activation: RAT, LIVER, S-9, AROCLOR 1254, Method: STANDARD PLATE
[6] = Test System: AMES SALMONELLA TYPHIMURIUM, Strain/Indicator: TA98, Metabolic Activation: NONE, Method: PREINCUBATION
[7] = Test System: AMES SALMONELLA TYPHIMURIUM, Strain/Indicator: TA100, Metabolic Activation: NONE, Method: PREINCUBATION

## Cc1cccc2c1ccc1ccccc12
[1]
  mutagenic call: inactive; negative
Test System: AMES SALMONELLA TYPHIMURIUM, Strain/Indicator: TA97, Metabolic Activation: RAT, LIVER, S-9, PCB, Method: STANDARD PLATE
  mutagenic call: active; positive
[2]
  mutagenic call: inactive; negative
Test System: AMES SALMONELLA TYPHIMURIUM, Strain/Indicator: TA98, Metabolic Activation: RAT, LIVER, S-9, PCB, Method: STANDARD PLATE
  mutagenic call: active; positive
[3]
  mutagenic call: inactive; negative
Test System: AMES SALMONELLA TYPHIMURIUM, Strain/Indicator: TA100, Metabolic Activation: RAT, LIVER, S-9, PCB, Method: STANDARD PLATE
  mutagenic call: active; positive

## Oc1ccc2cc3c4ccccc4c4ccccc4c3cc2c1O
Test System: AMES SALMONELLA TYPHIMURIUM, Strain/Indicator: TA100, Metabolic Activation: RAT, LIVER, S-9, AROCLOR 1254, Method: PREINCUBATION
  mutagenic call: active; positive

## Nc1ncnc2c1ncn2[C@@H]1O[C@H](CO)[C@@H](O)[C@H]1O
[1]
  mutagenic call: inactive; negative
Test System: AMES SALMONELLA TYPHIMURIUM, Strain/Indicator: TA97, Metabolic Activation: RAT, LIVER, S-9, AROCLOR 1254, Method: STANDARD PLATE
  mutagenic call: inactive; negative
[2]
  mutagenic call: inactive; negative
Test System: AMES SALMONELLA TYPHIMURIUM, Strain/Indicator: TA98, Metabolic Activation: RAT, LIVER, S-9, AROCLOR 1254, Method: STANDARD PLATE
  mutagenic call: inactive; negative
[3]
  mutagenic call: inactive; negative
[4]
  mutagenic call: inactive; negative
Test System: AMES SALMONELLA TYPHIMURIUM, Strain/Indicator: TA1535, Metabolic Activation: NONE, Method: STANDARD PLATE
  mutagenic call: inactive; negative
Test System: AMES SALMONELLA TYPHIMURIUM, Strain/Indicator: TA1535, Metabolic Activation: RAT, LIVER, S-9, AROCLOR 1254, Method: STANDARD PLATE
  mutagenic call: inactive; negative
Test System: AMES SALMONELLA TYPHIMURIUM, Strain/Indicator: TA1538, Metabolic Activation: NONE, Method: STANDARD PLATE
  mutagenic call: inactive; negative
[5]
  mutagenic call: inactive; negative
Test System: CHINESE HAMSTER OVARY, Strain/Indicator: CHO-KL-BH4 (HGPRT), Metabolic Activation: NONE
  mutagenic call: inactive; negative
Test System: CHINESE HAMSTER OVARY, Strain/Indicator: CHO-KL-BH4 (HGPRT), Metabolic Activation: RAT, LIVER, S-9, AROCLOR 1254
  mutagenic call: inactive; negative

## O=C1C=C2c3cc4ccccc4cc3-c3cccc(c32)C1=O
[4]
  mutagenic call: active; positive

## CC(C)S(=O)(=O)Cl
[6]
  mutagenic call: inactive; negative
Test System: AMES SALMONELLA TYPHIMURIUM, Strain/Indicator: TA98, Metabolic Activation: RAT, LIVER, S-9, PHENOBARBITAL, Method: PREINCUBATION
  mutagenic call: active; positive
[7]
  mutagenic call: active; positive
Test System: AMES SALMONELLA TYPHIMURIUM, Strain/Indicator: TA100, Metabolic Activation: RAT, LIVER, S-9, PHENOBARBITAL, Method: PREINCUBATION
  mutagenic call: active; positive

## Cc1cc(-c2ccc(N=Nc3c(N)c(C)cc(S(=O)(=O)O)c3N)c(C)c2)ccc1N=Nc1ccc(O)c(C(=O)O)c1
[5]
  mutagenic call: active; positive

## OCC(CO)(CO)CO
[6]
  mutagenic call: inactive; negative
Test System: AMES SALMONELLA TYPHIMURIUM, Strain/Indicator: TA98, Metabolic Activation: RAT, LIVER, S-9, KC 500, Method: PREINCUBATION
  mutagenic call: inactive; negative
Test System: AMES SALMONELLA TYPHIMURIUM, Strain/Indicator: TA98, Metabolic Activation: RAT, LIVER, S-9, SODIUM PHENOBARBITAL AND 5,6-BENZOFLAVONE, Method: PREINCUBATION
  mutagenic call: inactive; negative
[7]
  mutagenic call: inactive; negative
Test System: AMES SALMONELLA TYPHIMURIUM, Strain/Indicator: TA100, Metabolic Activation: RAT, LIVER, S-9, KC 500, Method: PREINCUBATION
  mutagenic call: inactive; negative
Test System: AMES SALMONELLA TYPHIMURIUM, Strain/Indicator: TA100, Metabolic Activation: RAT, LIVER, S-9, SODIUM PHENOBARBITAL AND 5,6-BENZOFLAVONE, Method: PREINCUBATION
  mutagenic call: inactive; negative
Test System: AMES SALMONELLA TYPHIMURIUM, Strain/Indicator: TA102, Metabolic Activation: NONE, Method: PREINCUBATION
  mutagenic call: inactive; negative
Test System: AMES SALMONELLA TYPHIMURIUM, Strain/Indicator: TA102, Metabolic Activation: RAT, LIVER, S-9, SODIUM PHENOBARBITAL AND 5,6-BENZOFLAVONE, Method: PREINCUBATION
  mutagenic call: inactive; negative
Test System: AMES SALMONELLA TYPHIMURIUM, Strain/Indicator: TA104, Metabolic Activation: NONE, Method: PREINCUBATION
  mutagenic call: inactive; negative
Test System: AMES SALMONELLA TYPHIMURIUM, Strain/Indicator: TA104, Metabolic Activation: RAT, LIVER, S-9, SODIUM PHENOBARBITAL AND 5,6-BENZOFLAVONE, Method: PREINCUBATION
  mutagenic call: inactive; negative
Test System: AMES SALMONELLA TYPHIMURIUM, Strain/Indicator: TA1535, Metabolic Activation: NONE, Method: PREINCUBATION
  mutagenic call: inactive; negative
Test System: AMES SALMONELLA TYPHIMURIUM, Strain/Indicator: TA1535, Metabolic Activation: RAT, LIVER, S-9, KC 500, Method: PREINCUBATION
  mutagenic call: inactive; negative
Test System: AMES SALMONELLA TYPHIMURIUM, Strain/Indicator: TA1535, Metabolic Activation: RAT, LIVER, S-9, SODIUM PHENOBARBITAL AND 5,6-BENZOFLAVONE, Method: PREINCUBATION
  mutagenic call: inactive; negative
Test System: AMES SALMONELLA TYPHIMURIUM, Strain/Indicator: TA1537, Metabolic Activation: NONE, Method: PREINCUBATION
  mutagenic call: inactive; negative
Test System: AMES SALMONELLA TYPHIMURIUM, Strain/Indicator: TA1537, Metabolic Activation: RAT, LIVER, S-9, KC 500, Method: PREINCUBATION
  mutagenic call: inactive; negative
Test System: AMES SALMONELLA TYPHIMURIUM, Strain/Indicator: TA1537, Metabolic Activation: RAT, LIVER, S-9, SODIUM PHENOBARBITAL AND 5,6-BENZOFLAVONE, Method: PREINCUBATION
  mutagenic call: inactive; negative
Test System: AMES SALMONELLA TYPHIMURIUM, Strain/Indicator: TA1538, Metabolic Activation: NONE, Method: PREINCUBATION
  mutagenic call: inactive; negative
Test System: AMES SALMONELLA TYPHIMURIUM, Strain/Indicator: TA1538, Metabolic Activation: RAT, LIVER, S-9, KC 500, Method: PREINCUBATION
  mutagenic call: inactive; negative
Test System: E. COLI, Strain/Indicator: WP2UVRA/PKM101, Metabolic Activation: NONE, Method: PREINCUBATION
  mutagenic call: inactive; negative
Test System: E. COLI, Strain/Indicator: WP2UVRA/PKM101, Metabolic Activation: RAT, LIVER, S-9, SODIUM PHENOBARBITAL AND 5,6-BENZOFLAVONE, Method: PREINCUBATION
  mutagenic call: inactive; negative
Test System: E. COLI, Strain/Indicator: WP2UVRA, Metabolic Activation: NONE, Method: PREINCUBATION
  mutagenic call: inactive; negative
Test System: E. COLI, Strain/Indicator: WP2 UVRA, Metabolic Activation: RAT, LIVER, S-9, KC 500, Method: PREINCUBATION
  mutagenic call: inactive; negative
Test System: E. COLI, Strain/Indicator: WP2UVRA, Metabolic Activation: RAT, LIVER, S-9, SODIUM PHENOBARBITAL AND 5,6-BENZOFLAVONE, Method: PREINCUBATION
  mutagenic call: inactive; negative
